In paper PMC10613275 (Scientific Reports, 2023):
Entries after “also recorded” stand apart in the source; their conditions may differ. Like-named read-outs stand apart in the source and are kept apart here. Marks after values point to notes of the source that are not given here.

Tests used:
[1] = Intestinal absorption, Caco-2 intestinal barrier model in vitro; format: in vitro ADME, human; conditions: human
Caco-2 cells [2] = experiment: as above; format: in vitro ADME, human; conditions: lilial 1 mM, 4 h
[3] = Cytotoxicity, cell viability (resazurin assay), HeLa9903; format: cell-based, human; conditions: human, HeLa9903 cells, all concentrations up to 100 µM, vs vehicle control, read-out: Relative viability
HeLa9903 cells = experiment: as above; format: cell-based, human; conditions: 1 nm–100 µM, 1 day
CHO-K1 cells = format: cell-based, Chinese hamster; conditions: for MoA (mean fluorescence values over area of the nuclei): lilial 100 µM, PC 30 μM
Procedure: Briefly, HeLa and CHO-K1 cells were seeded at a concentration of 1 × 10^5 cells/ml into the 96-well plates. CHO-K1 cells were used for comparison with HPRT test. HeLa cells were recommended by the manufacturer of the kit. After 24 h, cells were rinsed with PBS and cultivation medium (“Cell lines” Section) without ATB, with a reduced content of FBS (5%) was added. 30 µM valinomycin (in DMSO) was used as a positive control Samples were applied in the presence of non-toxic sample concentrations, i.e. 100 µM either with or without S9 mix. […] Cells were photographed using a fluorescence microscope (Olympus IX83); filters: DAPI (500 ms) and Cy3 (500 ms). Bioimage analysis in ImageJ software was performed as described previously.

RPTEC/TERT1 cells = experiment: Nephrotoxicity, RT-qPCR of kidney damage biomarkers; format: cell-based, human; conditions: up to 100 µM
Procedure: RPTEC/TERT1 cells were seeded at a concentration of 2 × 10^5 cells/ml in ProxUp2 medium into 60 mm Petri dishes. After 24 h, the cells were washed with PBS and […] metabolites (100 μM) were applied in fresh ProxUp2 medium. The cells were incubated with samples for 48 h, after which the cells were washed with PBS and dishes were frozen in - 160 °C. The RNA was isolated using RNeasy Plus Mini Kit (Qiagen, Hilden, Germany). The RNA concentration and purity was determined with NanoDrop One (ThermoFisher Scientific) spectrophotometr. The cDNA synthesis was performed from 0.1 μg of total RNA with an iScript Reverse Transcription Supermix (Bio-Rad, Hercules, California, USA). Quantitative real-time PCR (qPCR) was performed using the qPCR Bio-Rad C100 Touch System (Bio-Rad) with a 96-well block. The reaction mixture consisted of 1 μl of specific 20 × PrimePCR Assay (Bio-Rad), 10 μl of 2 × SsoAdvance Universal Supermix (Bio-Rad), 2 μl of cDNA sample, 7 μl of nuclease-free water. The final reaction volume was 20 μl. […] Cycling parameters were: initial denaturation at 95 °C for 2 min, followed by 40 cycles of 95 °C for 5 s and 60 °C for 30 s. Fluorescence values were acquired after each extension phase. Samples were analyzed in triplicate, and samples with a standard deviation of duplicates > 0.2 Ct were re-analyzed. A non-template control containing nuclease-free water instead of cDNA as well as non-RT control containing purified RNA without reverse transcription was used. The real-time PCR study followed the MIQE guidelines. Relative transcript levels of the estimated genes in the cell lines were compared using the software CFX Maestro Software 2.3 (Bio-Rad).

[4] = tested on: complexes I and II of the electron transport chain; conditions: cited from earlier work
HepG2 cells = conditions: HepG2, 100 µM ref 2; cited from earlier work
Caco-2 cells [5] = conditions: Caco-2, 100 µM ref 2; cited from earlier work
MCF7 cells = conditions: MCF7 ref 2; cited from earlier work
[6] = design: method as in PMID 24239523; conditions: concentrations up to 500 μM ref 5; cited from earlier work
rats = tested on: rats; design: method as in PMID 32461162; conditions: parental rats F0 and F1 in vivo ref 3; cited from earlier work
[7] = design: method as in PMID 32461162; conditions: cited from earlier work
[8] = tested on: NRF2 protein in THP-1 cells; conditions: 650 µM, 5 h ref 15; cited from earlier work
[9] = tested on: ARE-Nrf2 luciferase (KeratinoSens); design: method as in PMID 23576290; conditions: cited from earlier work
[10] = design: method as in earlier work; conditions: guinea pigs, 1% p-BMHCA in ethanol, 120 µg substance/cm^2, 16 h ref 4; cited from earlier work
[11] = design: method as in earlier work; conditions: human volunteers, cited from earlier work
[12] = tested on: Chinese hamster lung and human colonic epithelial cells; design: method as in PMID 32461162, PMID 24239523; conditions: in vitro ref 3, 5; cited from earlier work
[13] = tested on: S. typhimurium and E. coli, CHO and Chinese hamster V79 cells; conditions: cited from earlier work

Compound: CC(C=O)Cc1ccc(C(C)(C)C)cc1 (stereo not drawn) [Lilial, 3-(4-(tert-butyl)phenyl)-2-methylpropanal]
- recovery at 4 h, 1 mM ([1]; Caco-2, lilial 1 mM, 4 h, all compartments): ~80%
- Papp at 4 h, 1 mM ([1]; Caco-2, read-out: Papp (apparent permeability coefficient)): 21 ×10⁻⁶ cm/s
- Lilial (%) in Caco-2 cells (Caco-2 cells [2]): 13.1 ± 5.2%
- Lilial (%) in apical medium (Caco-2 cells [2]): 32.3 ± 2.0%
- Lilial (%) in basolateral medium (Caco-2 cells [2]): 34.1 ± 3.4%
- Recovery (Caco-2 cells [2]; all compartments): 79.5%
- viability at 1 day [3]: > 80%
- Cytotoxicity result (HeLa9903 cells): Non toxic up to 100 µM
- Genotoxicity result (CHO-K1 cells; CHO-K1, 100 µM): Inconclusive
- MoA (mean fluorescence values over area of the nuclei) (CHO-K1 cells; CHO-K1, 4h_S9): 1.10*
- MoA (mean fluorescence values over area of the nuclei) (CHO-K1 cells; CHO-K1, 4 h, without S9): 0.52
- MoA (mean fluorescence values over area of the nuclei) (CHO-K1 cells; CHO-K1, 24 h): 0.99
- Nephrotoxicity result (RPTEC/TERT1 cells): Non nephrotoxic
- Nephrotoxicity result (RPTEC/TERT1 cells; listed as lilial): not toxic; also recorded: neither lilial, nor its metabolites, demonstrated nephrotoxic activity
- Effect on complexes I and II of the electron transport chain [4]: inhibit complexes I and II
- Decrease in cell viability (HepG2 cells): 23%
- Decrease in cell viability (Caco-2 cells [5]): 23%
- Effect on cell viability (MCF7 cells): no negative effect
- Genotoxicity at the chromosomal level (clastogenicity or aneuploidy) or single-strand breaks [6]: did not induce genotoxicity
- Effects on fertility and reproductive performance (rats): no adverse effects
- Dermal absorption value ([7]; hydroalcoholic-based fragrances and deodorant/antiperspirant products ref 3): 13.5%
- Dermal absorption value ([7]; oil-in-water-based products ref 3): 8.9%
- Dermal absorption value ([7]; water-in-oil-based products ref 3): 10.5%
- Level of NRF2 protein [8]: significant increase
- KeratinoSens assay result [9]: negative
- In vitro dermal absorption [10]: 25.7%
- Mean of applied dose detected in urine ([11]; dermal 6 h, urine within 24 h ref 4): 1.4%
- Topical application recovery ([11]; dermal 6 h ref 4): 71 ± 10%
- Mutagenicity in mammalian cell gene mutation assay [12]: not mutagenic
- Genotoxic and mutagenic potential [13]: No genotoxic and mutagenic potential
